Our source for the logP values is patent US20080188688A1, “SOLVENTS FOR PHASE-TRANSFER-CATALYZED REACTIONS” (priority 2007, published 2008).

The nature of the data set: Log P determined in accordance with OECD Guideline No. 107 for the Testing of Chemicals (water/n-octanol).
Where [1] appears, read: Log P (Log P value of the solvent, as measured in accordance with Guideline No. 107), summary table of the examples.
Setting [2] is: Log P determined in accordance with OECD Guideline 107 for the Testing of Chemicals, water/n-octanol 1:1 by weight, 20° C.
The mark [3] stands for this setting: log P value, as printed in the abbreviations list.

As for `COC(C)(C)C` [MTBE, methyl tert.butyl ether], the logP is, setting by setting: under setting [1], 1.12; under setting [2], 1.12.
Regarding `CC(=O)CC(C)C` [MIBK, methyl isobutyl ketone], the log partition coefficient (logP) runs as follows: under setting [1], 1.4; under setting [2], 1.4; under setting [3], 1.31.
For the molecule `CCCCCCCCCC(=O)N(C)C` [Decanoic acid dimethyl amide], the log partition coefficient (logP) reads like this: under setting [1], 2.94; under setting [2], 2.94; under setting [3], 2.94.

The logP is a log measure of how a compound divides between an organic and an aqueous phase. A lower logP goes with a more hydrophilic compound.
